Data reported in patent US20210134398A1, “Combinatorial Chemistry Computational System and Enhanced Selection Method” (Southern Methodist University, priority 2019, published 2021).
Entries after “also recorded” stand apart in the source; their conditions may differ. Like-named read-outs stand apart in the source and are kept apart here. Each block holds one molecule with its values, some of them ahead of it.

Tests used:
[1] = tested on: P-gp overexpressing prostate cancer cell line, DU145TXR; assay: MTT cell viability assay, resensitization to paclitaxel; type: cell-based, human; conditions: for Fold vs PTX (fold increased sensitivity): vs paclitaxel alone; for Fold vs PTX + 29: vs paclitaxel + parental compound 29
Summary of the method: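 DU145TXR cells were seeded for 24 h, then exposed for 48 h to paclitaxel alone or with P-gp inhibitor at 3, 5, 7 or 10 μM. Viability was read by MTT (4 h, A570) against DMSO-treated cells. Paclitaxel IC50 came from four-parameter fits, and fold sensitization was calculated from those IC50s.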

[2] = target: T1, Cysteineless Mouse MDR3 P-glycoprotein (Mus musculus, UniProt P21447, C1070A/C1121A/C1223A/C133A/C427A/C638A/C669A/C713A/C952A); assay: ATPase activity assay (basal and verapamil-stimulated), purified P-gp in mixed micelles; type: biochemical; conditions: for Effect on stimulated ATPase / Stimulated ATPase: in the presence of verapamil; for Stimulated ATPase / Basal ATPase: ± standard deviation; for Effect on basal ATPase / Basal ATPase: no added transport substrate
T1 construct: made in house; host or cells: Pichia pastoris
Procedure: Evaluation of mode of inhibition of P-glycoprotein by Group 1 and Group 2 variants of compound 29. To assess the mode of inhibition of P-gp by the novel variants of P-gp inhibitor 29, ATP hydrolysis by P-gp was evaluated in the presence or absence of the variants. […] Murine P-gp (MDR3) expressed in Pichia pastoris that had all naturally occurring cysteines replaced with alanine, was used^45, 46. It is widely assumed that the ATP hydrolytic rate of P-gp is stimulated in the presence of transport substrates when compared to ATP hydrolysis in the absence of transport substrates. Assays comparing these rates can therefore be useful not only in identifying inhibitors of P-gp catalyzed ATP hydrolysis, but also to potentially infer whether a compound might be a transport substrate if basal ATPase rates are stimulated by the addition of a compound.
P-glycoprotein Purification. Cysteine-less MDR3 and the human normal MDR1 P-glycoprotein was recombinantly expressed in the yeast Pichia pastoris essentially as in^45, 46 and used for assaying ATP hydrolysis and ATP binding to the protein in the presence of the 29-variants. Purification of the protein was performed as described^49 with small modifications resulting in highly enriched P-gp in mixed micelles containing dodecyl maltoside (DDM) and lysophosphatidyl choline^26.
ATPase Activity Assays. ATP hydrolysis activity was measured using a coupled enzyme assay^72 as modified in reference^26.

[3] = target: P-gp (P-gp over-expressing cell line, DU145TXR) (Homo sapiens, UniProt P08183); assay: Cellular accumulation of experimental compounds by LC-MS/MS with and without tariquidar
Summary of the method: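 Accumulation of each compound in P-gp-overexpressing DU145TXR cells was quantified by LC-MS/MS. Values are the ratio of cellular amount with the P-gp inhibitor tariquidar to the amount without it, as an index of P-gp transport.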

T1 sequence (P21447 whole entry C133A/C427A/C638A/C669A/C713A/C952A/C1070A/C1121A/C1223A): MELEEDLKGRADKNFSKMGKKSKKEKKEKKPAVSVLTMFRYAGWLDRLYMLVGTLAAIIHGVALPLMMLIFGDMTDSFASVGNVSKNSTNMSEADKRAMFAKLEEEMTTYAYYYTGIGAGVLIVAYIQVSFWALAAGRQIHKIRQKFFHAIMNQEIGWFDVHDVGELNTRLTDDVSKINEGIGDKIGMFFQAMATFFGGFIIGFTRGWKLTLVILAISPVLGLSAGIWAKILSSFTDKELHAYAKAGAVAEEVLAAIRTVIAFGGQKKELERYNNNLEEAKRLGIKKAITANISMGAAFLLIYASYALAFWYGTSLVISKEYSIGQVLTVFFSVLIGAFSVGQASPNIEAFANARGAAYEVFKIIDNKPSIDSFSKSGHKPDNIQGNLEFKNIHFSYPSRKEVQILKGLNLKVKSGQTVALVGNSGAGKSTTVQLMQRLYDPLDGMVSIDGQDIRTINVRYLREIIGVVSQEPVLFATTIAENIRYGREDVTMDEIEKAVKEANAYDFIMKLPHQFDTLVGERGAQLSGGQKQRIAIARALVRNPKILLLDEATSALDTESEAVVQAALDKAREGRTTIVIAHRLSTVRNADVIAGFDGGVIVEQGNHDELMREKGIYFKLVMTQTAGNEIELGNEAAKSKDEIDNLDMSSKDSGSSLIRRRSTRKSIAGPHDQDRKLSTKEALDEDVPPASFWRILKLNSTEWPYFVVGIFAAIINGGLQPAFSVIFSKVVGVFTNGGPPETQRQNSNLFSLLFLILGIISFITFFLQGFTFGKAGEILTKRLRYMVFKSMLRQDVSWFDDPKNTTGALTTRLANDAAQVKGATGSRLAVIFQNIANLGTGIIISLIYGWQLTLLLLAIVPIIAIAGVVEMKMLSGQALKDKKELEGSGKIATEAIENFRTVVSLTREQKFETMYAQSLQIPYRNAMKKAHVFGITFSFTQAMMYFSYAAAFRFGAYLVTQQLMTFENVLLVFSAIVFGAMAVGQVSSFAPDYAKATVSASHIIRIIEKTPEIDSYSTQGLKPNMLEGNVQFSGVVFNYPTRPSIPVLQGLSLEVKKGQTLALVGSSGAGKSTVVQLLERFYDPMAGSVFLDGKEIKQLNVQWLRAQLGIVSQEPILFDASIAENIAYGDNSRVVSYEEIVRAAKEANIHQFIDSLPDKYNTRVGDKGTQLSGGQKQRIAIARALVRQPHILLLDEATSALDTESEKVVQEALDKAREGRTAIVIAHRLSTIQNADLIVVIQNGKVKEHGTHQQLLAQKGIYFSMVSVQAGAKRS
Sequence of P-gp (P-gp over-expressing cell line, DU145TXR) (P08183 whole entry): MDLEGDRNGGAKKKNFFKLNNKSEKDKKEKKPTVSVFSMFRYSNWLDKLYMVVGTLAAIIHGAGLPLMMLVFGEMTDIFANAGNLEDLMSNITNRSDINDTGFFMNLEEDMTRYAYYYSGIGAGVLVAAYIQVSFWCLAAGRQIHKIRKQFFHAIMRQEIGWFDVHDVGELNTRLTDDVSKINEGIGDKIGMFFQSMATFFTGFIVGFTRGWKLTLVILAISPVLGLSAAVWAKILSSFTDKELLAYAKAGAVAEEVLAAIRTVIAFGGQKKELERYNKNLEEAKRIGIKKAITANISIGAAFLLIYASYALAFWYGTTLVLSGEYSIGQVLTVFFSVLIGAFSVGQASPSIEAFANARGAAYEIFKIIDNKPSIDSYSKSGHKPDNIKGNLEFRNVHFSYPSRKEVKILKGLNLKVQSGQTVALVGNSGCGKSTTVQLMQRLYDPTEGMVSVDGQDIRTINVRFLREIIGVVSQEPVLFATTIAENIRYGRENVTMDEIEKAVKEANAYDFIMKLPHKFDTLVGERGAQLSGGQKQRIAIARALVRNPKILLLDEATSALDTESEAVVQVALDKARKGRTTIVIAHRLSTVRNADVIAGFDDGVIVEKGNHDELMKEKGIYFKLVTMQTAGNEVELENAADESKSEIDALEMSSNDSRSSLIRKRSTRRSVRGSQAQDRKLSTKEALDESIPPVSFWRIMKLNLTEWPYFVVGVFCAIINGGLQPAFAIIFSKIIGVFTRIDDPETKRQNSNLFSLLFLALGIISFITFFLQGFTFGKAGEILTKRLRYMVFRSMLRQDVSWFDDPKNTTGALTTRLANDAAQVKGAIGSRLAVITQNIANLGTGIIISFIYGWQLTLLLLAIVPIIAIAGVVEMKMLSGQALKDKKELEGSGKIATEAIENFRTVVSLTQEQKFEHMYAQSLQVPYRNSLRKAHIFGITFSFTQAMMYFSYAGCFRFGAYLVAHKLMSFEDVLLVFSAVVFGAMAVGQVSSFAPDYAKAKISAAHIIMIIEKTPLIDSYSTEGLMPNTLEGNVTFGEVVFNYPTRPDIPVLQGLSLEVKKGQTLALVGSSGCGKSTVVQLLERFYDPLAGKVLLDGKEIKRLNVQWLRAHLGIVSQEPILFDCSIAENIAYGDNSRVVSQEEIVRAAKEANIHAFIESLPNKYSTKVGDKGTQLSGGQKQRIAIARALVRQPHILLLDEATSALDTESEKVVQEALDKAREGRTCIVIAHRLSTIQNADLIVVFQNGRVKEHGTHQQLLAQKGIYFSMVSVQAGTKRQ

Effect on stimulated ATPase ([2]; listed as SMU29-551): inhibitor
Stimulated ATPase [2]: 62 ± 5 % of DMSO
Effect on basal ATPase ([2]; listed as 551): stimulated basal ATPase activity
Effect on basal ATPase ([2]; listed as SMU29-551): stimulator
Basal ATPase [2]: 150 ± 6 % of DMSO
Cellular accumulation: ratio of plus Tariquidar over no Tariquidar ([3]; human): 1.1
SMILES: Cc1cc(C)c(-c2cc(NC(=O)CSc3cccc(NC(=O)c4cncc(Br)c4)c3)n(-c3ccccc3)n2)cc1C [29-551, 5-bromo-N-(3-((2-oxo-2-((1-phenyl-3-(2,4,5-trimethylphenyl)-1H-pyrazol-5-yl)amino)ethyl)thio)phenyl)nicotinamide]
Fold vs PTX (fold increased sensitivity) ([1]; 3 μM inhibitor): 38 fold
Resensitization of DU145TXR to paclitaxel / MDR reversal (in words) ([1]; 3 to 10 μM inhibitor, listed as 551): re-sensitized; also recorded: more effective than 29 at all concentrations tested
Effect on stimulated ATPase ([2]; listed as 551): inhibited activity similar to parental compound 29; also recorded: inhibited verapamil-stimulated ATPase activity
Transport substrate for P-gp ([3]; human, not told): none of the Group 1 compounds functions as a transport substrate of P-gp

Effect on stimulated ATPase [2]: inhibitor
Stimulated ATPase [2]: 49 ± 2 % of DMSO
Effect on basal ATPase [2]: none
Basal ATPase [2]: 95 ± 11 % of DMSO
Cellular accumulation: ratio of plus Tariquidar over no Tariquidar [3]: 1.0
Intracellular accumulation in absence vs presence of tariquidar (in words) [3]: no significant difference
SMILES: Cc1cc(C)c(-c2cc(NC(=O)CSc3nnc(C4CC4)[nH]3)n(-c3ccccc3)n2)cc1C [compound 29, reference compound]
Fold vs PTX + 29 ([1]; 3 μM inhibitor): 1 fold
Fold vs PTX (fold increased sensitivity) ([1]; 3 μM inhibitor): 3 fold
Fold vs PTX + 29 ([1]; 5 μM inhibitor): 1 fold
Fold vs PTX (fold increased sensitivity) ([1]; 5 μM inhibitor): 11 fold
Fold vs PTX + 29 ([1]; 7 μM inhibitor): 1 fold
Fold vs PTX (fold increased sensitivity) ([1]; 7 μM inhibitor): 36 fold
Fold vs PTX + 29 ([1]; 10 μM inhibitor): 1 fold
Fold vs PTX (fold increased sensitivity) ([1]; 10 μM inhibitor): 101 fold
